Experimental data: PubChem BioAssay AID1912 (The Scripps Research Institute Molecular Screening Center, 2009)
Active and inactive are the calls of the source. How the calls were made is not given here.

What follows are compounds tested against Luciferin 4-monooxygenase (Photinus pyralis) (UniProt P08659) (assay: native FLuc inhibition dose response – biochemical, luminescence, artefact control for HSP90 inhibitor project (AID 1912)). Settings: purified firefly luciferase.
Sequence of Luciferin 4-monooxygenase (Photinus pyralis) (P08659 whole entry, looked up): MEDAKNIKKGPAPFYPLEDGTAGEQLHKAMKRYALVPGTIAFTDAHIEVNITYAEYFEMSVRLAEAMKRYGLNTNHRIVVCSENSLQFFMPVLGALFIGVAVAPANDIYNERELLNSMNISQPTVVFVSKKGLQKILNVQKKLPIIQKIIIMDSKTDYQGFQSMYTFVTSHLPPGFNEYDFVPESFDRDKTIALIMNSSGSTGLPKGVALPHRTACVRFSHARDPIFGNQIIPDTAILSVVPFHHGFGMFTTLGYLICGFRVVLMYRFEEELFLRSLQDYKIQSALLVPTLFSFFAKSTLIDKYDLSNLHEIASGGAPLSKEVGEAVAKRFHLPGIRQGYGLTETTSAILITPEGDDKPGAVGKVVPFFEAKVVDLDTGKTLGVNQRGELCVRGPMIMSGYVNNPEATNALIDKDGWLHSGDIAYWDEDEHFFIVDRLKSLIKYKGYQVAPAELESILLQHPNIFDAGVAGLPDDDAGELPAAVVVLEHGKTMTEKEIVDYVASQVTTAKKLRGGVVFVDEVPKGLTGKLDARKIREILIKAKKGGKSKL
In the case of `COC(=O)c1ccc(COc2ccc3c(C)c(C)c(=O)oc3c2)o1`, the IC50 is reported as > 60 µM (inactive).
For `CCCc1ccc(OCc2ccc(C(=O)N3CCSCC3)o2)cc1`, the IC50 was “inactive”.
For `CC(=O)Nc1ccccc1OCC(=O)c1cc(C)n(Cc2cccs2)c1C`, the IC50 was > 60 µM (inactive).
`CCc1ccc(OCc2ccc(C(=O)OC)o2)cc1` was tested, and the IC50 was > 60 µM (inactive).
For `COc1cc(N2Cc3ccccc3C2)ccc1C=O`, the IC50 was > 60 µM (inactive).
For `O=C(O)c1ccc(NC2=C/C(=N/S(=O)(=O)c3ccccc3)c3ccccc3C2=O)cc1`, the IC50 was > 60 µM (inactive).
`Cc1ccc2oc(=O)c(/C=C(\O)c3ccco3)nc2c1` was tested, and the IC50 was > 60 µM (inactive).
`O=C(CN1C(=O)c2ccccc2S1(=O)=O)c1ccc2c(c1)OCCCO2` was tested, and the IC50 was “inactive”.
In the case of `CCOC(=O)c1csc(NC(=O)c2cc3ccccc3o2)n1`, the IC50 is reported as > 60 µM (inactive).
For `COC(=O)c1ccc2nc(NC(=O)C3CC3)sc2c1`, the IC50 was > 60 µM (inactive).
`O=C(Cc1ccccc1)N1CCN(S(=O)(=O)c2ccc([N+](=O)[O-])cc2)CC1` was tested, and the IC50 was > 60 µM (inactive).
With `Cc1nc(NC(=O)c2ccc(F)cc2)sc1C(=O)Nc1ccc2c(c1)CCC2` the IC50 was > 60 µM (inactive).
For `CN1C(=O)S/C(=C/c2ccc(OCc3cccc(C(=O)O)c3)cc2)C1=O`, the IC50 was > 20 µM (inactive).
`O=C(CSc1ncccc1C(=O)O)c1ccc2ccccc2c1` was tested, and the IC50 was “inactive”.
With `Cc1nc2ccc(C(=O)O)cc2[nH]1` the IC50 was > 60 µM (inactive).
With `Cc1[nH]n(-c2ccccc2)c(=O)c1N=Nc1ccc(C(N)=O)cc1` the IC50 was > 60 µM (inactive).
With `Cc1ccccc1NC1=C/C(=N\S(=O)(=O)c2ccc(C(=O)O)cc2)c2ccccc2C1=O` the IC50 was “inactive”.
With `CCOC(=O)c1sc(NC(=O)c2ccc(C)o2)nc1C` the IC50 was > 60 µM (inactive).
In the case of `CC(=O)Nc1ccc(OS(=O)(=O)c2ccc([N+](=O)[O-])cc2)cc1`, the IC50 is reported as > 60 µM (inactive).
In the case of `Cc1ccc2oc(=O)c(/C=C(\O)c3cccs3)nc2c1`, the IC50 is reported as > 60 µM (inactive).
With `Cc1ccc(/C=C2\SC(=S)N(CCCC(=O)Nc3ccccn3)C2=O)cc1` the IC50 was > 60 µM (inactive).
`CCCCOc1ccc(-c2cc(C(=O)NNC(=S)NCC)c3ccccc3n2)cc1` was tested, and the IC50 was “inactive”.
With `COC(=O)c1ccc(N/C=C/C(=O)c2ccccc2)cc1` the IC50 was “inactive”.
In the case of `O=C(O)c1cc(N/N=C/c2cccnc2)ccc1Cl`, the IC50 is reported as > 60 µM (inactive).
With `COc1cccc(-c2cc3nc4c(c(NCC(C)(C)CN(C)C)n3n2)CCCC4)c1` the IC50 was > 60 µM (inactive).
For `CCc1ccc(S(=O)(=O)/N=C2\C=C(Nc3ccc(C(=O)O)cc3)C(=O)c3ccccc32)cc1`, the IC50 was > 60 µM (inactive).
In the case of `CC(C)Sc1nc(SCC(=O)NCc2ccco2)c2c3c(sc2n1)COC(C)(C)C3`, the IC50 is reported as > 60 µM (inactive).
`CCc1ccc(Nc2n[n+](-c3ccccc3)c(-c3ccc(N(CC)CC)cc3)s2)cc1` was tested, and the IC50 was > 60 µM (inactive).
In the case of `CC(C)(C)c1ccc(C(=O)c2c[nH]c(C(=O)O)c2)cc1`, the IC50 is reported as “inactive”.
In the case of `COC(=O)NCCOC(=O)N(O)c1ccc(Br)cc1`, the IC50 is reported as > 60 µM (inactive).
`COc1ccc(/C=C/c2noc(-c3ccccc3OC(C)=O)n2)cc1` was tested, and the IC50 was “inactive”.
`CCC(=O)Nc1ccccc1C(=O)OCC(=O)c1ccccc1` was tested, and the IC50 was > 60 µM (inactive).
`O=[N+]([O-])/C=C/c1ccc2c(ccn2Cc2ccccc2)c1` was tested, and the IC50 was > 60 µM (inactive).
In the case of `Cc1ccc(S(=O)(=O)/N=C2\C=C(Nc3cccc(C(=O)O)c3)C(=O)c3ccccc32)cc1`, the IC50 is reported as > 60 µM (inactive).
`Cc1cc(NO)nc(-c2ccc(Br)cc2)n1` was tested, and the IC50 was > 60 µM (inactive).
For `O=C1c2cc(F)ccc2-n2c1nc1ccccc1c2=O`, the IC50 was > 60 µM (inactive).
`O=S(=O)(Cc1ccccc1)N(O)c1ccccc1` was tested, and the IC50 was > 60 µM (inactive).
With `COC(=O)c1ccccc1OCCCOc1ccc(C=O)cc1OC` the IC50 was > 60 µM (inactive).
For `COC(=O)c1ccccc1NC1=C/C(=N\S(=O)(=O)c2ccc(C(=O)O)cc2)c2ccccc2C1=O`, the IC50 was > 60 µM (inactive).
For `Cc1cc(NC(=O)c2coc(=O)c(Br)c2)ccc1C(C)C`, the IC50 was > 60 µM (inactive).
With `COc1cc(/C=N/Nc2ccc(Cl)c(C(=O)O)c2)ccc1OC(=O)c1ccco1` the IC50 was > 60 µM (inactive).
`CCOC(=O)C1CCCN(C(=O)c2sc3nc(-c4ccc(OC)cc4)cn3c2C)C1` (centres undefined) was tested, and the IC50 was > 60 µM (inactive).
With `COc1ccccc1NC(=O)c1coc(=O)c(Br)c1` the IC50 was > 60 µM (inactive).
For `CC(=O)CSc1ccc(-c2nc3ccccc3[nH]2)cn1`, the IC50 was > 60 µM (inactive).
In the case of `Cc1ccccc1NC1=C/C(=N\S(=O)(=O)c2cccs2)c2ccccc2C1=O`, the IC50 is reported as > 20 µM (inactive).
For `C=CCOc1c(CNc2cccc(C(=O)O)c2)cccc1OC`, the IC50 was > 60 µM (inactive).
In the case of `Cc1ccc(/C=C2/C(=O)c3ccc(C(=O)O)cc3C2=O)o1`, the IC50 is reported as > 60 µM (inactive).
In the case of `O=C(OCc1ccccn1)c1ccc(COc2ccc3ccccc3c2)o1`, the IC50 is reported as > 60 µM (inactive).
`O=C(O)c1ccc(S(=O)(=O)/N=C2\C=C(Nc3ccccc3F)C(=O)c3ccccc32)cc1` was tested, and the IC50 was > 60 µM (inactive).
`O=c1oc2ccc(Cl)cc2nc1/C=C(\O)c1ccco1` was tested, and the IC50 was > 60 µM (inactive).
For `Cc1nc(CS(=O)(=O)c2ccc(Cl)cc2)sc1C(=O)O`, the IC50 was > 60 µM (inactive).
In the case of `CCN(CC)c1ccc(SS(=O)(=O)O)cc1`, the IC50 is reported as > 60 µM (inactive).
For `CCC(C)c1ccc(OCc2ccc(C(=O)OC)o2)cc1` (centres undefined), the IC50 was > 60 µM (inactive).
For `CNC(=S)N/N=C/c1ccc(-c2ccc(C(=O)O)cc2)o1`, the IC50 was > 60 µM (inactive).
With `O=C1C(Nc2ccc(O)cc2)=C/C(=N/S(=O)(=O)c2cccs2)c2ccccc21` the IC50 was “inactive”.
For `O=C(O)CSCC(=O)Nc1ccc(C2CCCCC2)cc1`, the IC50 was > 60 µM (inactive).
In the case of `COc1cc(/C=N/Nc2ccc(Cl)c(C(=O)O)c2)ccc1OC(=O)c1ccccc1F`, the IC50 is reported as > 60 µM (inactive).
With `O=[N+]([O-])c1ccc(N=Nc2ncc[nH]2)cc1` the IC50 was > 60 µM (inactive).
In the case of `Cc1c(-c2nc(-c3ccc(C(C)(C)C)cc3)no2)n(C)oc1=O`, the IC50 is reported as > 60 µM (inactive).
`Cc1c(-c2nc(-c3ccc(C(F)(F)F)cc3)no2)n(C)oc1=O` was tested, and the IC50 was > 60 µM (inactive).
`COc1cc(/C=C/[N+](=O)[O-])ccc1OCc1cccc(C(=O)O)c1` was tested, and the IC50 was “inactive”.
`[O-]/[N+](=C\c1ccco1)c1ccc(Cl)cc1` was tested, and the IC50 was > 60 µM (inactive).
`COc1ccc(C(=O)Oc2ccc(/C=N/Nc3ccc(Cl)c(C(=O)O)c3)cc2OC)cc1` was tested, and the IC50 was > 60 µM (inactive).
With `Cc1cccc(N(O)C(=O)Nc2cccc(Cl)c2)c1` the IC50 was > 60 µM (inactive).
In the case of `CCOC(=O)c1csc(NC(=O)c2ccc3c(c2)OCCO3)n1`, the IC50 is reported as > 60 µM (inactive).
For `CN(C)c1ccc(C2Nc3cccc4cccc(c34)N2)cc1`, the IC50 was > 60 µM (inactive).
`COC(=O)C1CCN(C(=O)c2ccc3nc(-c4cccc(OC)c4)oc3c2)CC1` was tested, and the IC50 was > 60 µM (inactive).
For `C=CCn1c(NS(=O)(=O)c2ccccc2)c(S(=O)(=O)c2ccc(C)cc2)c2nc3ccccc3nc21`, the IC50 was > 60 µM (inactive).
For `COC(=O)C[C@]1(C(=O)OC)CN(C#N)N(c2ccc(Cl)cc2)C12c1ccccc1-c1ccccc12`, the IC50 was > 60 µM (inactive).
`Cc1ccc(C(=O)CN2C(=O)c3ccccc3S2(=O)=O)cc1` was tested, and the IC50 was > 60 µM (inactive).
In the case of `CS(=O)(=O)c1ccc(-c2cn3cc(C(=O)O)ccc3n2)cc1`, the IC50 is reported as “inactive”.
For `COc1ccc(-c2cc3c(=O)n(CC(=O)NCCCN4CCC(Cc5ccccc5)CC4)ncn3n2)cc1`, the IC50 was “inactive”.
For `CCOC(=O)c1ccc(-c2ccc(C=O)o2)cc1`, the IC50 was > 60 µM (inactive).
For `CCOC(=O)C1=C(c2ccc(OC)cc2)C(=O)c2ccccc2C1=O`, the IC50 was > 60 µM (inactive).
`COc1ccc(-c2cn3c(C)c(C(=O)Nc4cccc(C)n4)sc3n2)cc1` was tested, and the IC50 was “inactive”.
In the case of `CCN(CC)c1ccc2cc(NC(=O)CCC(=O)O)c(=O)oc2c1`, the IC50 is reported as > 60 µM (inactive).
For `Cc1ccc2nc(NC(=O)CSCC(=O)OCC(=O)c3ccccc3)sc2c1`, the IC50 was > 60 µM (inactive).
`O=C(O)c1cccc(-n2c(O)c(C=C3N=c4ccccc4=N3)sc2=S)c1` was tested, and the IC50 was > 60 µM (inactive).
In the case of `O=C(CN1C(=O)c2ccccc2S1(=O)=O)c1ccc2c(c1)OCCO2`, the IC50 is reported as > 60 µM (inactive).
With `CCOc1ccc(-c2nc(CN(Cc3ccccc3)C[C@@H]3CCC(=O)N3)c(C)o2)cc1` the IC50 was > 60 µM (inactive).
For `Cc1cc(C)c(S(=O)(=O)/N=C2\C=C(Nc3ccc(C(=O)O)cc3)C(=O)c3ccccc32)c(C)c1`, the IC50 was > 60 µM (inactive).
In the case of `COc1ccc(N(/N=C2\Sc3ccccc3C2=O)C(C)=O)cc1`, the IC50 is reported as > 60 µM (inactive).
In the case of `Cc1cc2ccccc2n1CCNC(=O)c1cccs1`, the IC50 is reported as > 60 µM (inactive).
`Cc1oc(-c2ccc(-c3ccccc3)cc2)nc1CN(C)C1CCOC1` (centres undefined) was tested, and the IC50 was > 60 µM (inactive).
With `Cc1nc(NC(=O)c2cccc(Cl)c2)sc1C(=O)N1CCCCC1` the IC50 was > 60 µM (inactive).
With `O=C(O)c1cc(N/N=C/c2c[nH]c3ccccc23)ccc1Cl` the IC50 was > 60 µM (inactive).
For `COC(=O)c1ccc(COc2ccc3c(c2)CCC3)o1`, the IC50 was > 60 µM (inactive).
In the case of `CCc1ccc(S(=O)(=O)/N=C2\C=C(Nc3cccc(C(=O)O)c3)C(=O)c3ccccc32)cc1`, the IC50 is reported as > 60 µM (inactive).
`COc1ccccc1Nc1nn2c(=O)c3ccc(C(=O)NCc4cccnc4)cc3nc2s1` was tested, and the IC50 was > 60 µM (inactive).
For `CC(=O)Oc1ccccc1/C=C/c1nc2ccccc2c(=O)o1`, the IC50 was > 60 µM (inactive).
For `O=C(O)c1cccc(NC(=S)NC(NC(=O)c2cccc([N+](=O)[O-])c2)C(Cl)(Cl)Cl)c1` (centres undefined), the IC50 was > 60 µM (inactive).
With `Nc1c(-c2ccccc2)cnn1-c1ccc(C(=O)O)cc1` the IC50 was “inactive”.
`CC(=O)c1ccc(N=Nc2c(C)[nH]n(-c3ccccc3)c2=O)cc1` was tested, and the IC50 was > 60 µM (inactive).
With `COCC(C)n1c(C)cc(C(=O)Cn2nc(C(=O)O)c3ccccc3c2=O)c1C` (centres undefined) the IC50 was > 60 µM (inactive).
`COC(=O)c1ccc(NC(=O)c2ccc(C)cc2)o1` was tested, and the IC50 was > 60 µM (inactive).
`O=C1C(Nc2ccccc2)=C/C(=N/S(=O)(=O)c2cccs2)c2ccccc21` was tested, and the IC50 was “inactive”.
With `CCOC(=O)c1csc(NC(=O)c2ccc(OCC)cc2)n1` the IC50 was > 60 µM (inactive).
`Cc1nc(NC(=O)/C=C/c2ccccc2)sc1C(=O)Nc1ccccc1Cl` was tested, and the IC50 was > 60 µM (inactive).
For `CCCCn1c(NC(=O)c2ccccc2Cl)c(C#N)c2nc3ccccc3nc21`, the IC50 was > 60 µM (inactive).
